According to patent publication US5310749A, “Antiprotozoal composition containing a 2-nitroimidazole derivative and method thereof” (Pola Chemical Industries Inc., priority 1991, dated 1994):

Columns and labels:
[1] = tested on: Trypanosoma cruzi (Tulahuen Strain); experiment: Deaths and presence of protozoa in infected ICR mice, compound 1) with or without anionic copolymer (Example 5); format: in vivo, Trypanosoma cruzi (Tulahuen Strain) in ICR male mice
Description: Five groups (Groups 1 to 5) of four week old ICR male mice, each group consisting of 3 mice, were provided. Group 2 and Group 5 mice were given 4.4 mg of acrylic acid-diisobutylvinyl ether copolymer (monomer ratio=1:1, average molecular weight=1.29×10^5) as dissolved in a 0.2 ml saline. On the second day, all animals were intraperitoneally given Trypanosoma cruzi (Tulahuen Strain) in the number of 40,000 for each. On the fifth, sixth, seventh, eighth and ninth day of the administration of the Tripanosoma, Group 1 and Group 2 mice were given saline, and Group 3 and Group 5 mice were given compound 1) (200 mg/kg) as dissolved in saline. Group 4 mice were intraperitoneally given 4.4 mg of acrylic acid-diisobutyl vinyl ether copolymer (monomer ratio=1:1, average molecular weight=1.29×10^5) and compound 1) (200 mg/kg) on the fifth day of the administration of the Trypanosoma, and on the sixth, seventh, eighth and ninth day of the administration, compound 1) (200 mg/kg) was intraperitoneally administered. Observation was continued until 60 th day of administration of Trypanosoma. The mice which were alive on the 60th day were killed and dissected to check the presence or absence of the protozoa in blood, the heart and in the liver under microscope.

Trypanosoma cruzi [2] = experiment: Anti-protozoan action 1 (in vitro), T. cruzi-infected A204 cells; format: cell-based; set-up: key: +++: same number of protozoa alive as control; ++: slightly less number alive than control; +: less number alive than control; ±: only a few alive; -: all dead; conditions: A204 cells infected with T. cruzi, 37° C., 24 hours
Description: A204 cells (derived from a […]), which had been infected in advance with Trypanosoma cruzi and maintained by subculture at 37° C., were cultured in a 24-well plate for tissue culture. The protozoa in the number of about 10^5 were confirmed to be present. After the cells were treated with 50 μmol, 100 μmol and 500 μmol of compounds 1) to 3), they were cultured at 37° C. for 24 hours. Life and death of the protozoa was observed under microscope and scored. The medium used was Dulbecco Modified Eagle Medium manufactured by Dainihon-Seiyaku K. K. added with 10% bovine serum. Control was free of any of compounds 1 to 3).

Trypanosoma cruzi [3] = experiment: Anti-protozoan action 2 (in vitro), T. cruzi culture in GIT medium; format: cell-based; set-up: key: +++: same number of protozoa alive as control; ++: slightly less number alive than control; +: less number alive than control; ±: only a few alive; -: all dead; conditions: GIT medium (serum-free), 27° C., 120 hours
Description: Trypanosoma cruzi was cultured at 27° C. in a GIT medium (serum-free medium) manufactured by Nippon Seiyaku K. K. which was modified to contain […] of hemine. 50 μmol, 100 μmol, 250 μmol and 500 μmol of each of compounds 1) to 3) were added thereto. 120 hours later, life or death of the protozoa was observed under microscope and scored according to the criteria in Example 1. Control was free of any of compounds 1) to 3).

[4] = tested on: Trypanosoma cruzi (Tulahuen strain); experiment: Anti-protozoan action (in vivo), survival of infected ICR mice (Example 3); set-up: species or system Trypanosoma cruzi (Tulahuen strain) in male ICR mice; conditions: 200 mg/kg on days 5-9; 400,000 T. cruzi i.p.; all of 3 mice; control 14-15 days
Description: Trypanosoma cruzi (Tulahuen strain) in the number of 400,000 was intraperitoneally administered to a group of 4 week old male ICR mice. At each of fifth, sixth, seventh, eighth and ninth day of the administration,200 mg/kg of compound 1) was given to the mice. Control group was given saline solution instead of compound 1). The anti-protozoan effect of compound 1) was determined based on the days of survival of the mice.

Acute toxicity = conditions: mouse, in vivo, ip
Description: ICR mice were intraperitoneally administered with compound 1) for the acute toxicity test. Observation was continued for 14 days after the administration.

[5] = tested on: Trypanosoma cruzi (Tulahuen strain); experiment: Anti-protozoan action (in vivo), survival of infected C3H/Hecrj mice (Example 4); set-up: species or system Trypanosoma cruzi (Tulahuen strain) in male C3H/Hecrj mice; conditions: 200 mg/kg on days 4-8; 200,000 T. cruzi i.p.; 4 mice; control 12 days
Description: Trypanosoma cruzi (Tulahuen strain) in the number of 200,000 was intraperitoneally administered to a group of 5 week old male C3H/Hecrj mice. At each of fourth, fifth, sixth, seventh and eighth day of the administration, 200 mg/kg of compound 1) was given to the mice. Control group was given saline solution instead of compound 1). The anti-protozoaneffect of compound 1) was determined based on the days of survival of the mice.

[6] = ICR mice, intraperitoneal, observation 14 days

O=[N+]([O-])c1nccn1COCC=CCO [Compound 1)]
Number of Dead Samples ([1]; Group 3: compound 1) 200 mg/kg on days 5-9): 0
death in the groups given compound 1) ([1]; Group Nos. 3, 4 and 5): no death
Life and death of the protozoa, score (Trypanosoma cruzi [2]; 50 μmol): ±
Life and death of the protozoa, score (Trypanosoma cruzi [2]; 100 μmol): -
Life and death of the protozoa, score (Trypanosoma cruzi [2]; 500 μmol): -
Life or death of the protozoa, score (Trypanosoma cruzi [3]; 50 μmol): ++
Life or death of the protozoa, score (Trypanosoma cruzi [3]; 100 μmol): ++
Life or death of the protozoa, score (Trypanosoma cruzi [3]; 250 μmol): +
Life or death of the protozoa, score (Trypanosoma cruzi [3]; 500 μmol): -
days of survival of the mice [4]: more than 50 days
LD50 at 336 h (Acute toxicity): 830 mg/kg
days of survival of the mice [5]: more than 20 days

O=[N+]([O-])c1nccn1COC(CO)CO [Compound 2)]
Life and death of the protozoa, score (Trypanosoma cruzi [2]; 50 μmol): ++
Life and death of the protozoa, score (Trypanosoma cruzi [2]; 100 μmol): ++
Life and death of the protozoa, score (Trypanosoma cruzi [2]; 500 μmol): -
Life or death of the protozoa, score (Trypanosoma cruzi [3]; 50 μmol): +++
Life or death of the protozoa, score (Trypanosoma cruzi [3]; 100 μmol): +++
Life or death of the protozoa, score (Trypanosoma cruzi [3]; 250 μmol): +++
Life or death of the protozoa, score (Trypanosoma cruzi [3]; 500 μmol): +++
LD50 at 336 h (Acute toxicity; [6]): 4300 mg/kg

O=[N+]([O-])c1nccn1[C@H]1O[C@H](CO)[C@@H](O)[C@H]1O [Compound 3)]
Life and death of the protozoa, score (Trypanosoma cruzi [2]; 50 μmol): ++
Life and death of the protozoa, score (Trypanosoma cruzi [2]; 100 μmol): ++
Life and death of the protozoa, score (Trypanosoma cruzi [2]; 500 μmol): +
Life or death of the protozoa, score (Trypanosoma cruzi [3]; 50 μmol): +++
Life or death of the protozoa, score (Trypanosoma cruzi [3]; 100 μmol): +++
Life or death of the protozoa, score (Trypanosoma cruzi [3]; 250 μmol): +++
Life or death of the protozoa, score (Trypanosoma cruzi [3]; 500 μmol): +
LD50 at 336 h (Acute toxicity; [6]): > 5000 mg/kg
